{"source": "patent US10259844B2", "about": "“Endometriosis cell targeting peptide and uses thereof” (Sanford-Burnham Medical Research Institute, priority 2005, dated 2019)", "key": {"[1]": {"test_system": "Ishikawa cells", "experiment": "Fluorescence microscopy of overlay on Ishikawa cells", "assay_type": "cell-based, human", "procedure": "Twenty μl of C16-z13 peptide (10 mM in chloroform:methanol 2:1) was mixed with 20 μl phosphatidylcholine (100 mM in chloroform) and 10 μl cholesterol (100 mM in chloroform) in a round bottom flask and evaporated in a rotary evaporator. The sample was dried in a vacuum, dissolved in 500 μl 0.3M citric acid, and frozen and thawed three times, followed by sonication for 10 min. Five hundred μl of 0.2M Na2CO3 and 20 μl of 1 μM Qdot605 streptavidin was added and heated at 60° C. for 1 hour. After adding 1 ml of 20 mM Hepes buffer, pH7.2, the liposome solution was centrifuged at 90,000 rpm for 30 min at 4° C. and the pellet dissolved in PBS.\n(§1) Ishikawa cells and A431 cells were grown on glass coverslips in 3.5 cm tissue culture plates. Each phage clone including z13 was added to these cells, incubated at 4° C. for 15 min, washed with cold PBS, and fixed with 1% paraformaldehyde (PFA) in PBS. Phage was detected using rabbit anti-T7 antibody and FITC-conjugated goat anti-rabbit IgG antibody. After washing three times with PBS, cells were fixed with 1% paraformaldehyde in PBS and inspected under a Zeiss Axioplan fluorescence microscope. Ishikawa cells grown on glass coverslips were incubated in medium containing FITC-z13 peptide (1 μg/ml) at 37° C. for 15 min. After washing with PBS, cells were fixed with 1% PFA in PBS, and inspected under the fluorescence microscope. Qdot-encapsulated and C16-z13 peptide coated liposomes were prepared as described above. Ishikawa cells were incubated with these liposomes at 37° C. for 15 min, washed with PBS, fixed with 1% PFA, and inspected under the fluorescence microscope. Qdot605-conjugated peptide, Qdot-cys-z13, or control peptide, Qdot-cys-m2, was added to the culture at 100 nM and left at 37° C. for 15 min."}, "[2]": {"test_system": "human endometrial tissues grafted onto the peritoneal wall", "experiment": "In vivo targeting in SCID mouse peritoneal endometriosis model", "conditions": "intraperitoneal injection, 30 min", "procedure": "For in vivo targeting, Qdot-cys-z13 or Qdot-cys-m2 (200 nmoles in 200 μl PBS/mouse) was injected into the peritoneum of a SCID mouse that had received intraperitoneal grafts of human endometrial tissues. The abdomen of the mouse was massaged gently to distribute injected material to the entire peritoneal cavity. After 30 min, mice were sacrificed, and the endometrial graft and organs facing the peritoneum were isolated. Tissues were washed in PBS, embedded in O. C. T. compound (Sakura Finetechnical, Tokyo, Japan) and cryosections were made. Sections were fixed with cold methanol, covered with Vecta-shield with DAPI (Vector), and inspected with a fluorescence microscope.\nImmunohistochemistry for the progesterone receptor (PR) was performed as follows: Frozen mouse tissue sections prepared from Qdot-cys-z13 injected mice, Qdot-cys-m2 injected mice, and control mice without Qdot injection were fixed in cold methanol for 15 min. Tissue sections were blocked with avidin (5 ng/ml) in PBS at room temperature for 15 min, followed by incubation with 10% goat serum containing biotin (5 μg/ml) for 1 hour. The tissue sections were then applied to immunohistochemistry with a diluted (1:100) anti-PR antibody (DAKO, Carpinteria, Calif.) at 4° C. for 20 hours. After washing with PBS, sections were incubated with biotinylated anti-rabbit IgG antibody (Zymed) and by streptavidin conjugated Qdot565. […]"}, "[3]": {"test_system": "A431 cells", "experiment": "Fluorescence microscopy of overlay on A431 cells", "assay_type": "cell-based, human", "procedure": "as §1"}}, "note": "Where no end group is shown, it is not given here. The star is where a group is joined. FITC = O=C1OC2(c3ccc(O)cc3Oc3cc(O)ccc32)c2ccc(NC(=S)*)cc21"}
{"substance": "VRRADNRPG [z13 peptide]", "values": [{"measurement": "binding to Ishikawa cells regardless of modification at the amino terminus", "setting": "[1]; conclusion from FITC, C16 liposome and Qdot conjugates", "result": "efficiently binds"}]}
{"substance": "Qdot-cys-m2: Qdot605 conjugate of the control peptide cys-m2 CRGMSDTTAL (also: Qdot605 conjugate)", "values": [{"measurement": "fluorescence at the surface epithelia of endometriosis lesions", "setting": "[2]", "result": "did not show fluorescence"}, {"measurement": "fluorescence in other mouse tissues facing the peritoneum", "setting": "[2]", "result": "did not show fluorescence"}, {"measurement": "fluorescence of Qdot-conjugated peptide on Ishikawa cells", "setting": "[1]; 100 nM, 37° C. 15 min", "result": "did not show fluorescence signals"}]}
{"substance": "FITC-z13: synthetic fluorescence-tagged z13 peptide whose amino-terminus was conjugated ({FITC}-VRRADNRPG)", "values": [{"measurement": "binding of fluorescent peptide to Ishikawa cells", "setting": "[1]; 1 μg/ml, 37° C. 15 min", "result": "bound"}, {"measurement": "fluorescence of fluorescent peptide on A431 cells", "setting": "[3]", "result": "did not show fluorescence"}]}
